In patent US8658647B2, “Integrin-linked kinase inhibitors” (The Ohio State University Research Foundation, priority 2010, dated 2014):

How the values were obtained:
[1] = test system: prostate (PC-3, LNCaP) and breast cancer (MDA-MB-468, MDA-MB-231, CAL51, MCF-7, SKBR3) cell lines vs nonmalignant prostate (PrEC) and mammary epithelial cells …; assay: MTT cell viability in panel of prostate and breast cancer cell lines vs nonmalignant epithelial cells; assay type: cell-based, human; details: 12, 24 or 48 h
Experimental: Time- and/or dose-dependent effects of compound 2 on cell viability in (A) prostate cancer (PC-3, LNCaP) and nonmalignant prostate epithelial cells (PrEC), and (B) breast cancer (MDA-MB-468, MDA-MB-231, CAL51, MCF-7, SKBR3) and nonmalignant mammary epithelial cells (MEC) were determined. Cells were treated for 12, 24 or 48 h at the indicated concentrations and cell viability determined by MTT assays. Points, mean; bars, ±SD.
As structurally related compounds 2 and 3 differ only in that the N-alkyl moiety, i.e., methyl versus ethyl, compound 2 was selected for more thorough evaluation. Dose- and time-dependent effects of compound 2 on cell viability were determined in a panel of two prostate (PC-3, LNCaP) and five breast cancer (MDA-MB-468, MDA-MB-231, CAL51, MCF-7, SKBR3) cell lines (FIGS. 3A and B). Moreover, cancer cell lines were also evaluated in parallel with nonmalignant prostate and mammary epithelial cells (FIG. 3A, lower panel; 3B lower right panel).

[2] = test system: downstream targets of ILK (Akt-S473; GSK3β-S9); assay: Western blot of downstream targets of ILK, dose-dependent (FIG. 4); assay type: cell-based, human; details: PC-3 and MDA-MB-468 cells, 24 h, 5% FBS
Experimental: FIG. 4 provides evidence that Compound 2 suppresses the ILK signaling pathway. Western blot analysis of the dose-dependent effect of Compound 2 on downstream targets of ILK (Akt-S473; GSK3β-S9) in PC-3 and […] cells. Cells were treated for 24 h at the indicated concentrations in the presence of 5% FBS.
Based on western blot data showing the selective reduction in phospho-Akt-S473 levels relative to those of phospho-Akt-T308 (FIG. 2A), compound 2 was identified as an inhibitor of PDK2 activity. To evaluate compound 2 for the ability to inhibit ILK signaling, its effect on downstream targets of ILK was assessed in PC-3 and MDA-MB-468 cells by Western blotting (FIG. 4).

[3] = test system: Akt phosphorylation at the PDK2 site [S473] versus the PDK1 site [T308]; assay: Western blot of Akt phosphorylation at PDK2 (S473) vs PDK1 (T308) sites in PC-3 cells; assay type: cell-based, human; details: 24 h, 2.5 μM, 5% FBS
Experimental: (§1) FIG. 2 provides (A) Western blot analysis of the effects of compounds 1-9 on Akt phosphorylation at the PDK1 (T308) and PDK2 (S473) sites in PC-3 human prostate cancer cells after 24 h treatment at 2.5 μM in the presence of 5% fetal bovine serum (FBS), and (B) Dose-dependent effects of compounds 1-9 on the viability of PC-3 cells treated as described above in A. Cell viability was assessed by MTT assay. Points, mean; bars, ±SD.

PC-3 tumor xenografts = assay: PC-3 prostate tumor xenograft model, oral dosing; assay type: in vivo; details: 35 days
Experimental: PC-3 tumors were established in male athymic nude mice by subcutaneous injection of 5×10^5 PC-3 cells in a total volume of 0.1 ml serum-free medium containing 50% Matrigel. Mice with established tumors were randomized to three groups receiving the indicated treatments once daily by gavage for 35 days. Tumor sizes and body weights were measured weekly. Points, mean tumor volume; bars, ±SD.
The In vivo tumor suppressive activity of compound 2 in the PC-3 prostate tumor xenograft model was also evaluated. Based on the results described above, compound 2 was identified as the lead agent for development as a novel ILK/PDK2 inhibitor. To evaluate the in vivo antitumor activity of compound 2, athymic nude mice bearing established subcutaneous PC-3 tumor xenografts (mean starting tumor volume, 157.1±29.1 mm^3) were treated orally for 35 days with compound 2 at 25 or 50 mg/kg once daily or with vehicle (0.5% methylcellulose and 0.1% Tween 80 in sterile water) (n=5 mice). […] The in vivo efficacy of compound 2 after oral administration indicates its oral bioavailability.

[4] = test system: PC-3 human prostate cancer cells; assay: MTT cell viability assay in PC-3 cells; assay type: cell-based; details: 24 h, 5% FBS; for IC50: Homo sapiens, read-out: IC50, antiproliferative activity
Experimental: as §1
(§2) FIG. 5 provides the results from the screening of compounds 10-13. (A) Dose-dependent effects of compounds 10-13 and 2 on the viability of PC-3 cells after 24 h treatment […] in the presence of 5% FBS. Cell viability was assessed by MTT assay. Points, mean; bars, ±SD. (B) Western blot analysis of the effects of compounds 2 and 13 on the phosphorylation status of downstream targets of ILK in PC-3 cells.
(§3) In another series of tests, Compounds 10-13 were screened for antiproliferative activity, in parallel with compound 2, by MTT assay in PC-3 human prostate cancer cells. […] The effects of compound 13, vs. compound 2, on the phosphorylation status of downstream targets of ILK in PC-3 cells were evaluated by western blotting.

[5] = test system: MCF-7 human breast cancer cells; assay: MTT cell viability assay in MCF-7 cells; assay type: cell-based; details: MCF7, 24 h, 5% FBS, read-out: IC50, antiproliferative activity
Experimental: (§4) Dose-dependent effects of compounds 4-9 in MCF-7 (upper panel) and SKBR3 (lower) cells after 24 h treatment in the presence of 5% FBS. Cell viability was assessed by MTT assay. Points, mean; bars, ±SD.
(§5) Compounds 4-9, which were screened previously in a prostate cancer cell line (FIG. 2), were evaluated for antiproliferative activity in MCF-7 and SKBR3 human breast cancer cells.

[6] = test system: SKBR3 human breast cancer cells; assay: MTT cell viability assay in SKBR3 cells; assay type: cell-based; details: SK-BR-3, 24 h, 5% FBS, read-out: IC50, antiproliferative activity
Experimental: as §4, §5

[7] = test system: downstream targets of ILK; assay: Western blot of phosphorylation status of downstream targets of ILK in PC-3 cells (FIG. 5B); assay type: cell-based, human
Experimental: as §2, §3

CNC(=O)CCc1cc(-c2ccc(-c3ccc(C(F)(F)F)cc3)cc2)n(-c2ccc(N3CCNCC3)cc2)n1 [Compound 2, N-methyl-3-(1-(4-(piperazin-1-yl)phenyl)-5-(4′-(trifluoromethyl)-[1,1′-biphenyl]-4-yl)-1H-pyrazol-3-yl)propanamide]
selectivity of cytotoxicity, cancer cells versus nonmalignant cells [1]: selective cytotoxicity for cancer cells versus their nonmalignant counterparts | phospho-S473-Akt levels [2]: marked and selective decrease | phosphorylation of GSK3β [2]: reduced the phosphorylation | selective inhibition of Akt-S473 phosphorylation (PDK2 inhibitory activity) [3]: marked selective inhibition of Akt-S473 phosphorylation | inhibition of PC-3 tumor growth relative to vehicle-treated controls (PC-3 tumor xenografts; 25 mg/kg once daily oral, P=0.10): 42% | inhibition of PC-3 tumor growth relative to vehicle-treated controls (PC-3 tumor xenografts; 50 mg/kg once daily oral, P=0.03): 56% | changes in body weight (PC-3 tumor xenografts; 25 or 50 mg/kg once daily oral): nor significant changes in body weight | tolerability, signs of toxicity (PC-3 tumor xenografts; 25 or 50 mg/kg once daily oral): no overt signs of toxicity | antiproliferative activity, relative potency among compounds 1-9 [4]: most potent among the nine compounds

CCNC(=O)CCc1cc(-c2ccc(-c3ccc(C(F)(F)F)cc3)cc2)n(-c2ccc(N3CCNCC3)cc2)n1 [Compound 3, N-ethyl-3-(1-(4-(piperazin-1-yl)phenyl)-5-(4′-(trifluoromethyl)-[1,1′-biphenyl]-4-yl)-1H-pyrazol-3-yl)propanamide]
selective inhibition of Akt-S473 phosphorylation (PDK2 inhibitory activity) [3]: marked selective inhibition of Akt-S473 phosphorylation | antiproliferative activity, relative potency among compounds 1-9 [4]: most potent among the nine compounds

CCNC(=O)c1cc(-c2ccc(-c3ccc(C(F)(F)F)cc3)cc2)n(-c2ccc(NC(=O)CCN)cc2)n1 [Compound 5, 1-(4-(3-aminopropanamido)phenyl)-N-ethyl-5-(4′-(trifluoromethyl)-[1,1′-biphenyl]-4-yl)-1H-pyrazole-3-carboxamide]
IC50 [5]: 4 to 5 µM | IC50 [6]: 4 to 5 µM

CNC(=O)CCc1cc(-c2ccc(-c3ccc(C)cc3)cc2)n(-c2ccc(N3CCNCC3)cc2)n1 [Compound 11, N-methyl-3-(5-(4′-methyl-[1,1′-biphenyl]-4-yl)-1-(4-(piperazin-1-yl)phenyl)-1H-pyrazol-3-yl)propanamide]
IC50 [4]: 2 to 3 µM

CNC(=O)CCc1cc(-c2ccc3c(ccc4ccccc43)c2)n(-c2ccc(N3CCNCC3)cc2)n1 [Compound 13, N-methyl-3-(5-(phenanthren-2-yl)-1-(4-(piperazin-1-yl)phenyl)-1H-pyrazol-3-yl)propanamide]
phospho-Akt-S473 relative to phospho-Akt-T308 [7]: strong reduction | suppressive activity against GSK3β phosphorylation [7]: did not exhibit substantial suppressive activity | IC50 [4]: 2 to 3 µM
